These results are taken from patent US20260199484A1, “PROTAC DEGRADERS OF MLLT1 AND/OR MLLT3” (DARK BLUE THERAPEUTICS LTD, priority 2024, published 2026).

The structures appear in SMILES notation.

The target in assay [1] is T1, MLLT1 (Homo sapiens, UniProt Q03111).
T1 sequence (Q03111 1-559): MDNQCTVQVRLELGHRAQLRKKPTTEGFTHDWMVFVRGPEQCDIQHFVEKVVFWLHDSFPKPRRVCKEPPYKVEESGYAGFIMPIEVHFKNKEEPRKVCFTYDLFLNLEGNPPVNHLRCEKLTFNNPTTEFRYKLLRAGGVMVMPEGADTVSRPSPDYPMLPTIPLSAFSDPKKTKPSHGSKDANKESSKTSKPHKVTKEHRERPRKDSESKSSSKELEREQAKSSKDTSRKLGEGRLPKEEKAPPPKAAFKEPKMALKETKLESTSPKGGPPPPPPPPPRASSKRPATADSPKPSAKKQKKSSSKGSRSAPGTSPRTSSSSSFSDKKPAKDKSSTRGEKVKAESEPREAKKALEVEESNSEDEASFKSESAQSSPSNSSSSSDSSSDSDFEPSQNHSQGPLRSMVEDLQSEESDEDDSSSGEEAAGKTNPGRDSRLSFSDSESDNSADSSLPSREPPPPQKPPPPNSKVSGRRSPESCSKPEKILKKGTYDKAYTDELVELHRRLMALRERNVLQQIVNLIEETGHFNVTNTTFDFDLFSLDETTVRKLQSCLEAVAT
Kind of assay: MLLT1 HTRF IC50 determination assay (H3K9cro peptide displacement). It counts as binding. The text has this: (§1) This procedure is intended to measure the interaction between YEATS proteins and histone peptides modified by an appropriate epigenetic mark and can be used to assay compounds which bind to the YEATS proteins and inhibit this interaction. The assay uses 6His tagged MLLT1 or MLLT3 with an anti-6His antibody conjugated with Eu^3+ chelate (donor) and a biotinylated peptide with Streptavidin conjugated XL-665 (acceptor). When the donor and acceptor labels are in close proximity, by binding of the peptide by MLLT1 or MLLT3, the excitation of the donor (337 nm) triggers a Fluorescence Resonance Energy Transfer (FRET) to the acceptor which then fluoresces at specific wavelength (665 nm).
(§2) This step optimises the protein/peptide ratio that will be used in HTRF screening assay in order to allow the best signal-to-noise ratio. Each new purified protein should be titrate this way as the signal-to-noise ratio may differ from different protein batches. Displacement assay for MLLT1 and MLLT3 was performed by using H3K9 cro peptide (ARTKQTAR(Kcrot)STGGKAPRKQLYK(biotin)).
(§3) A serial dilution of 4× solution of biotinylated peptide was prepared in assay buffer (25 mM HEPES, 20 mM NaCl, 0.05% BSA, 0.05% Tween-20, pH 7.0) covering concentrations from 3.2 μM to 0.2 nM. and 5 μL of each dilution were transferred horizontally to fill 15 columns of a white ProxiPlate-384 Plus shallow well Microplate (Perkin Elmer, USA). A sixteenth column of buffer was also included for a background reference. In parallel, a serial dilution of the 6His-tag protein of interest was prepared in the same way and 5 μL of each dilution were vertically added to the wells containing the peptide dilutions. Buffer has been transferred to the last line of the plate in order to make a no-protein reference. The microplate has been covered and incubated 1 hour at room temperature. A 2× detection mix was prepared in assay buffer by diluting streptavidin conjugated with XL-665 (610SAXLB, Cisbio Bioassays, France) to 1/2000 and anti-6His(Eu) chelate (LANCE Eu-W1024 Anti-6×His, ADO111, Perkinelmer LAS (UK)LTD) to 1/20000, 10 μL were added to each well and the plate has been incubated for 1 to 24 hours at room temperature in the dark. The plate was read in the Pherastar using the HTRF module with dual emission protocol (A=ex. 320 nm em. 665 nm, B=ex. 320 nm em. 620 nm).
(§4) The HTRF ratio was calculated as channel A/B*10000 and the specific signal as follow: specific signal=HTRF Ratio Positive signal—HTRF Ratio Negative signal (without protein). The concentrations of protein and peptide that allow the maximum specific signal without saturation were selected to perform HRTF screening assay described below.
(§5) The compounds were dissolved in DMSO at a stock concentration of 10 mM and dispensed into microplate using the Echo acoustic liquid handler (Labcyte, Beckman Coulter, USA). The assay covers a window of compound concentrations from 20 μM to 20 nM spread in 11 data points in duplicate. Solvent and compound controls were added to each plate in order to calculate the background signal.
(§6) Ten microliters of 2× mix of 6His-protein and biotinylated peptide, the concentrations were determined above, were added to the dispensed compounds and incubated for one hour at room temperature in the dark. Ten microliters of the 2× detection mix was added to each well and the plate was incubated for another hour at room temperature in the dark and the plate was read in order to calculate the HTRF specific signal. The % inhibition values as follows:
(§7) The IC50 values were determined by plotting % inhibition vs compound concentration and fitting the data to a non-linear sigmoidal dose response equation (4 parameter fit): […]

Assay [2] concerns the target T2, MLLT3 (Homo sapiens, UniProt P42568).
T2 sequence (P42568 1-568): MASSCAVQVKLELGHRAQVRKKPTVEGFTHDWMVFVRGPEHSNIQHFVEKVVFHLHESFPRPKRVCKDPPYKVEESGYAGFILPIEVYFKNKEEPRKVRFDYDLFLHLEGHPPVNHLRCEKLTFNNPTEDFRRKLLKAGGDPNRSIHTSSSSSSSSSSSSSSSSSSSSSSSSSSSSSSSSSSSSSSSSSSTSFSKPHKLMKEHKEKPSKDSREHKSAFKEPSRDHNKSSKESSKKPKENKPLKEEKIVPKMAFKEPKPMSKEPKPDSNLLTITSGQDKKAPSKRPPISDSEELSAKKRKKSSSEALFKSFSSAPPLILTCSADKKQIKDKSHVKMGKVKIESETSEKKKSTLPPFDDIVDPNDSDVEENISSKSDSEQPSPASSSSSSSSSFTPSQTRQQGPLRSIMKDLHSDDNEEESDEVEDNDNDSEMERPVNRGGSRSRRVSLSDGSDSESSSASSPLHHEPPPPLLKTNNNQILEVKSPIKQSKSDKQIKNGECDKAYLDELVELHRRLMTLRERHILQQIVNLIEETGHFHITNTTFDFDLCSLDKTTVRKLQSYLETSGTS
Kind of assay: MLLT3 HTRF IC50 determination assay (H3K9cro peptide displacement). It counts as binding.
Source text: as §1, §2, §3, §4, §5, §6, §7

For the compound `CN1CCCC1c1[nH]c2cc(NC(=O)c3ccc4c(cnn4C)c3)ncc2c1F` (single isomer, unassigned) [Example 87, N-{3-fluoro-2-[(rel-2R)-1-methylpyrrolidin-2-yl]-1H-pyrrolo[3,2-c]pyridin-6-yl}-1-methylindazole-5-carboxamide], the IC50 in assay [1] (category, Table 4) was no more than 100 nM; in assay [2] (category, Table 4) it was no more than 100 nM.

For `Cc1nn(C)c2cc(C(=O)Nc3cc4[nH]c(C5CCCN5C)c(F)c4cn3)ccc12` (single isomer, unassigned) [Example 88, N-{3-fluoro-2-[(rel-2R)-1-methylpyrrolidin-2-yl]-1H-pyrrolo[3,2-c]pyridin-6-yl}-1,3-dimethylindazole-6-carboxamide], the IC50 was 17 nM in assay [1] (Table 5); no more than 100 nM in assay [1] (category, Table 4); 37 nM in assay [2] (Table 5); no more than 100 nM in assay [2] (category, Table 4).

Consider `Cc1c(C2CCCN2C)[nH]c2cc(NC(=O)c3ccc4c(C)nn(C)c4c3)ncc12` (single isomer, unassigned) [Example 90, 1,3-dimethyl-N-{3-methyl-2-[(rel-2R)-1-methylpyrrolidin-2-yl]-1H-pyrrolo[3,2-c]pyridin-6-yl}indazole-6-carboxamide], for which the IC50 in assay [1] (Table 5) was 12 nM; in assay [1] (category, Table 4) it was no more than 100 nM; in assay [2] (Table 5) it was 45 nM; in assay [2] (category, Table 4) it was no more than 100 nM.

For `CN1CCCC1c1[nH]c2cc(NC(=O)c3ccc4c(cnn4C)c3)ncc2c1F` (single isomer, unassigned) [Example 86, N-{3-fluoro-2-[(rel-2S)-1-methylpyrrolidin-2-yl]-1H-pyrrolo[3,2-c]pyridin-6-yl}-1-methylindazole-5-carboxamide], the IC50 was 1000 to 10000 nM in assay [1] (category, Table 4) and 1000 to 10000 nM in assay [2] (category, Table 4).

Take `Cc1nn(C)c2cc(C(=O)Nc3cc4[nH]c(C5CCCN5C)c(F)c4cn3)ccc12` (single isomer, unassigned) [Example 89, N-{3-fluoro-2-[(rel-2S)-1-methylpyrrolidin-2-yl]-1H-pyrrolo[3,2-c]pyridin-6-yl}-1,3-dimethylindazole-6-carboxamide]: the IC50 was in the range of 100 to 1000 nM in assay [1] (category, Table 4) and 1000 to 10000 nM in assay [2] (category, Table 4).

For `CCN1CCCC1c1cc2cnc(NC(=O)c3ccc4c(C)nn(C)c4c3)cc2[nH]1` (single isomer, unassigned) [Example 84, N-{2-[(rel-2R)-1-ethylpyrrolidin-2-yl]-1H-pyrrolo[3,2-c]pyridin-6-yl}-1,3-dimethylindazole-6-carboxamide], the IC50 lay in the range of 100 to 1000 nM in assay [1] (category, Table 4) and 100 to 1000 nM in assay [2] (category, Table 4).

For `Cc1nn(C)c2cc(C(=O)Nc3cc4[nH]c([C@@H]5CCCN5C)c(Cl)c4cn3)ccc12` [Example 81, N-{3-chloro-2-[(2S)-1-methylpyrrolidin-2-yl]-1H-pyrrolo[3,2-c]pyridin-6-yl}-1,3-dimethylindazole-6-carboxamide], the IC50 in assay [1] (category, Table 4) is 100 to 1000 nM; in assay [2] (category, Table 4), 1000 to 10000 nM.

Take `CN1CCCC1c1cc2cnc(NC(=O)c3ccc4c(cnn4C)c3)cc2[nH]1` (single isomer, unassigned) [Example 78, 1-methyl-N-{2-[(rel-2S)-1-methylpyrrolidin-2-yl]-1H-pyrrolo[3,2-c]pyridin-6-yl}indazole-5-carboxamide]: the IC50 fell in the range of 1000 to 10000 nM in assay [1] (category, Table 4) and 1000 to 10000 nM in assay [2] (category, Table 4).

In the case of `CN1CCCC1c1cc2cnc(NC(=O)c3ccc4c(cnn4C)c3)cc2[nH]1` (single isomer, unassigned) [Example 79, 1-methyl-N-{2-[(rel-2R)-1-methylpyrrolidin-2-yl]-1H-pyrrolo[3,2-c]pyridin-6-yl}indazole-5-carboxamide], the IC50 in assay [1] (category, Table 4) was no more than 100 nM; in assay [2] (category, Table 4) it was no more than 100 nM.

Take `Cc1nc(NC(=O)c2ccc3c(C)nn(C)c3c2)cc2[nH]c(C3CCCN3C)cc12` (single isomer, unassigned) [Example 93, 1,3-dimethyl-N-{4-methyl-2-[(rel-2S)-1-methylpyrrolidin-2-yl]-1H-pyrrolo[3,2-c]pyridin-6-yl}indazole-6-carboxamide]: the IC50 in assay [1] (category, Table 4) was in the range of 1000 to 10000 nM; in assay [2] (category, Table 4), 1000 to 10000 nM.

Regarding `Cc1c(C2CCCN2C)[nH]c2cc(NC(=O)c3ccc4c(C)nn(C)c4c3)ncc12` (single isomer, unassigned) [Example 91, 1,3-dimethyl-N-{3-methyl-2-[(rel-2S)-1-methylpyrrolidin-2-yl]-1H-pyrrolo[3,2-c]pyridin-6-yl}indazole-6-carboxamide], the IC50 lay in the range of 1000 to 10000 nM in assay [1] (category, Table 4) and 1000 to 10000 nM in assay [2] (category, Table 4).

For `Cc1nn(C)c2cc(C(=O)Nc3cc4[nH]c(C5CCCN5C)cc4cn3)ccc12` (racemic) [Example 75, rac-1,3-dimethyl-N-(2-(1-methylpyrrolidin-2-yl)-1H-pyrrolo[3,2-c]pyridin-6-yl)-1H-indazole-6-carboxamide], the IC50 in assay [1] (category, Table 4) was no more than 100 nM; in assay [2] (category, Table 4), 100 to 1000 nM.

As for `Cc1nc(NC(=O)c2ccc3c(C)nn(C)c3c2)cc2[nH]c(C3CCCN3C)cc12` (single isomer, unassigned) [Example 92, 1,3-dimethyl-N-{4-methyl-2-[(rel-2R)-1-methylpyrrolidin-2-yl]-1H-pyrrolo[3,2-c]pyridin-6-yl}indazole-6-carboxamide], the IC50 was 37 nM in assay [1] (Table 5); no more than 100 nM in assay [1] (category, Table 4); 63 nM in assay [2] (Table 5); no more than 100 nM in assay [2] (category, Table 4).

With `Cc1nn(C)c2cc(C(=O)Nc3cc4[nH]c([C@@H]5CCCN5C)cc4cn3)ccc12` (single isomer, unassigned) [Example 77], the half-inhibitory concentration (IC50) in assay [1] (category, Table 4) lay within 100 to 1000 nM; in assay [2] (category, Table 4) it was 1000 to 10000 nM.

In the case of `Cc1nn(C)c2cc(C(=O)Nc3cc4[nH]c([C@H]5CCCN5C)c(Cl)c4cn3)ccc12` [Example 80, N-{3-chloro-2-[(2R)-1-methylpyrrolidin-2-yl]-1H-pyrrolo[3,2-c]pyridin-6-yl}-1,3-dimethylindazole-6-carboxamide], the IC50 in assay [1] (Table 5) is 6 nM; in assay [1] (category, Table 4), no more than 100 nM; in assay [2] (Table 5) it was 22 nM; in assay [2] (category, Table 4) it was no more than 100 nM.
